Activity calls are given as the source filed them.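 The calls were made as follows: active = compound whose fitted luminescence drop, meaning cytotoxicity, reaches half effect at most twice its top valid tested dose; inconclusive = flat curve with a moderate drop, or an unreliable fit; inactive = rise instead of drop, flat response, or weaker potency.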
Assay: NIH/3T3 fibroblast cytotoxicity, dose response, cytotoxicity control for T. cruzi growth inhibitor project, cell-based, cherry-pick samples, set 2 (AID 651817)
Details: NIH/3T3 viability, ATP luminescence (CellTiter-Glo), 90 h; at 3.8 µM (top of the series)

SMILES | activity change, negative = cytotoxicity
Cc1ccc(S(=O)(=O)Nc2ccc3c(c2)CC(=O)N([C@H](C)CO)C[C@@H](C)[C@H](CN(C)Cc2ccc(Cl)c(Cl)c2)O3)cc1 | 33.6% (inactive)

Same assay, conditions: NIH/3T3 viability, ATP luminescence (CellTiter-Glo), 90 h; at 4.2 µM (top of the series)

SMILES | activity change, negative = cytotoxicity
COc1ccc(CN(C)C[C@H]2Oc3c(NC(=O)Nc4ccc(C(F)(F)F)cc4)cccc3C(=O)N([C@H](C)CO)C[C@H]2C)cc1 | 6.55% (inactive)

Same assay, conditions: NIH/3T3 viability, ATP luminescence (CellTiter-Glo), 90 h; at 18 µM (top of the series)

SMILES | activity change, negative = cytotoxicity
C[C@H]1CN([C@@H](C)CO)C(=O)Cc2cc(NS(=O)(=O)c3ccc(Cl)cc3)ccc2O[C@@H]1CN(C)S(=O)(=O)c1ccc(Cl)cc1 | -1.6% (inactive)

Same assay, conditions: NIH/3T3 viability, ATP luminescence (CellTiter-Glo), 90 h; at 19.5 µM (top of the series)

SMILES | activity change, negative = cytotoxicity
C[C@H](CO)N1C[C@H](C)[C@H](CN(C)Cc2ccc3c(c2)OCO3)Oc2c(NC(=O)c3nc4ccccc4s3)cccc2C1=O | -1.97% (inactive)
Cc1noc(C)c1NC(=O)Nc1cccc2c1O[C@H](CN(C)S(C)(=O)=O)[C@@H](C)CN([C@@H](C)CO)C2=O | -18.2% (inactive)
Cc1ccc(S(=O)(=O)N(C)C[C@H]2Oc3ccc(NS(=O)(=O)c4ccccc4)cc3CC(=O)N([C@@H](C)CO)C[C@@H]2C)cc1 | 26% (inactive)
C[C@@H]1CN([C@H](C)CO)C(=O)c2cccc(NC(=O)c3ccncc3)c2O[C@@H]1CN(C)CC1CCCCC1 | 29% (inactive)
C[C@@H]1CN([C@@H](C)CO)C(=O)Cc2cc(NS(=O)(=O)c3ccccc3)ccc2O[C@H]1CN(C)S(=O)(=O)c1ccc(Cl)cc1 | 0.768% (inactive)
Cc1ccc(S(=O)(=O)N(C)C[C@H]2Oc3ccc(NS(=O)(=O)c4ccccc4)cc3CC(=O)N([C@H](C)CO)C[C@@H]2C)cc1 | -11.8% (inactive)
C[C@@H]1CN([C@@H](C)CO)C(=O)c2cccc(NC(=O)c3ccncc3)c2O[C@H]1CN(C)Cc1ccc(C(F)(F)F)cc1 | 0.884% (inactive)
C[C@@H]1CN([C@@H](C)CO)C(=O)c2cccc(NC(=O)c3nc4ccccc4s3)c2O[C@H]1CN(C)S(=O)(=O)c1ccccc1 | -9.49% (inactive)
Cc1ccc(S(=O)(=O)Nc2ccc3c(c2)CC(=O)N([C@@H](C)CO)C[C@H](C)[C@@H](CN(C)Cc2ccccc2)O3)cc1 | 30.9% (inactive)
Cc1ccc(S(=O)(=O)N(C)C[C@H]2Oc3ccc(NS(=O)(=O)c4ccccc4)cc3CC(=O)N([C@H](C)CO)C[C@H]2C)cc1 | -0.01% (inactive)
C[C@@H]1CN([C@@H](C)CO)C(=O)c2cccc(NC(=O)c3ccncc3)c2O[C@H]1CN(C)Cc1ccc2c(c1)OCO2 | -26.4% (inactive)
Cc1ccc(S(=O)(=O)Nc2ccc3c(c2)CC(=O)N([C@@H](C)CO)C[C@@H](C)[C@@H](CN(C)Cc2ccccc2)O3)cc1 | -13.8% (inactive)
C[C@H]1CN([C@@H](C)CO)C(=O)c2cccc(NC(=O)c3nc4ccccc4s3)c2O[C@H]1CN(C)S(=O)(=O)c1ccc(Cl)cc1 | 1.37% (inactive)
Cc1ccc(S(=O)(=O)N(C)C[C@@H]2Oc3ccc(NS(=O)(=O)c4ccccc4)cc3CC(=O)N([C@H](C)CO)C[C@@H]2C)cc1 | 3.11% (inactive)
Cc1noc(C)c1NC(=O)Nc1cccc2c1O[C@@H](CN(C)S(C)(=O)=O)[C@@H](C)CN([C@H](C)CO)C2=O | 13.3% (inactive)
C[C@@H]1CN([C@H](C)CO)C(=O)c2cccc(NC(=O)NC3CCCCC3)c2O[C@@H]1CN(C)S(=O)(=O)c1ccc(F)cc1 | 18.6% (inactive)
C[C@@H]1CN([C@@H](C)CO)C(=O)c2cccc(NC(=O)NC3CCCCC3)c2O[C@H]1CN(C)S(=O)(=O)c1ccc(F)cc1 | 12.1% (inactive)
C[C@H]1CN([C@@H](C)CO)C(=O)c2cccc(NC(=O)c3ccncc3)c2O[C@@H]1CN(C)Cc1ccc(Oc2ccccc2)cc1 | -16.8% (inactive)
C[C@@H]1CN([C@H](C)CO)C(=O)c2cccc(NC(=O)c3ccncc3)c2O[C@H]1CN(C)Cc1ccc(Oc2ccccc2)cc1 | -6.58% (inactive)
C[C@H]1CN([C@@H](C)CO)C(=O)c2cccc(NC(=O)c3ccncc3)c2O[C@H]1CN(C)Cc1ccc(Cl)c(Cl)c1 | -14.4% (inactive)
C[C@H]1CN([C@@H](C)CO)C(=O)Cc2cc(NS(=O)(=O)c3ccccc3)ccc2O[C@@H]1CN(C)S(=O)(=O)c1ccc(Cl)cc1 | -7.84% (inactive)

SMILES | activity change, negative = cytotoxicity
C[C@@H]1CN([C@@H](C)CO)C(=O)c2cccc(NC(=O)c3nc4ccccc4s3)c2O[C@@H]1CN(C)S(=O)(=O)c1ccc(Cl)cc1 | -8.38% (inactive)
Cc1noc(C)c1NC(=O)Nc1cccc2c1O[C@H](CN(C)S(C)(=O)=O)[C@H](C)CN([C@@H](C)CO)C2=O | 1.29% (inactive)
C[C@@H]1CN([C@H](C)CO)C(=O)c2cccc(NC(=O)c3ccncc3)c2O[C@H]1CN(C)Cc1ccccc1 | 9% (inactive)
C[C@@H]1CN([C@@H](C)CO)C(=O)Cc2cc(NS(=O)(=O)c3ccccc3)ccc2O[C@@H]1CN(C)S(=O)(=O)c1ccc(Cl)cc1 | -12.4% (inactive)
C[C@@H]1CN([C@@H](C)CO)C(=O)c2cccc(NC(=O)c3ccncc3)c2O[C@@H]1CN(C)Cc1ccc(C(F)(F)F)cc1 | -16.7% (inactive)
Cc1ccc(S(=O)(=O)Nc2ccc3c(c2)CC(=O)N([C@H](C)CO)C[C@@H](C)[C@@H](CN(C)Cc2ccccc2)O3)cc1 | -12.9% (inactive)
Cc1ccc(S(=O)(=O)N(C)C[C@@H]2Oc3ccc(NS(=O)(=O)c4ccccc4)cc3CC(=O)N([C@H](C)CO)C[C@H]2C)cc1 | -18.9% (inactive)
C[C@H](CO)N1C[C@H](C)[C@@H](CN(C)Cc2ccc(Oc3ccccc3)cc2)Oc2c(NC(=O)c3ccncc3)cccc2C1=O | 16.4% (inactive)
Cc1ccc(S(=O)(=O)N(C)C[C@H]2Oc3c(NC(=O)c4nc5ccccc5s4)cccc3C(=O)N([C@@H](C)CO)C[C@@H]2C)cc1 | -1.47% (inactive)
C[C@H](CO)N1C[C@H](C)[C@@H](CN(C)Cc2ccc3c(c2)OCO3)Oc2c(NC(=O)c3ccncc3)cccc2C1=O | -18.8% (inactive)
C[C@H]1CN([C@@H](C)CO)C(=O)Cc2cc(NS(=O)(=O)c3ccccc3)ccc2O[C@H]1CN(C)S(=O)(=O)c1ccc(Cl)cc1 | -30.3% (inactive)
Cc1ccc(S(=O)(=O)Nc2ccc3c(c2)CC(=O)N([C@H](C)CO)C[C@H](C)[C@H](CN(C)Cc2ccccc2)O3)cc1 | -17.1% (inactive)
C[C@H](CO)N1C[C@H](C)[C@@H](CN(C)S(=O)(=O)c2ccc(Cl)cc2)Oc2ccc(NS(=O)(=O)c3ccccc3)cc2CC1=O | -20.3% (inactive)
C[C@@H]1CN([C@H](C)CO)C(=O)c2cccc(NC(=O)c3nc4ccccc4s3)c2O[C@@H]1CN(C)S(=O)(=O)c1ccccc1 | 35.6% (inactive)
C[C@@H]1CN([C@H](C)CO)C(=O)c2cccc(NC(=O)NC3CCCCC3)c2O[C@H]1CN(C)S(=O)(=O)c1ccc(F)cc1 | 1.29% (inactive)
COc1ccc(CN(C)C[C@H]2Oc3c(NC(=O)c4ccncc4)cccc3C(=O)N([C@@H](C)CO)C[C@@H]2C)cc1 | 5.41% (inactive)
C[C@@H]1CN([C@H](C)CO)C(=O)Cc2cc(NS(=O)(=O)c3ccccc3)ccc2O[C@H]1CN(C)S(=O)(=O)c1ccc(Cl)cc1 | -1.38% (inactive)
COc1ccc(CN(C)C[C@@H]2Oc3c(NC(=O)Nc4ccc(C(F)(F)F)cc4)cccc3C(=O)N([C@H](C)CO)C[C@@H]2C)cc1 | -21.3% (inactive)
C[C@H](CO)N1C[C@H](C)[C@H](CN(C)Cc2ccccc2)Oc2c(NC(=O)c3ccncc3)cccc2C1=O | 6.02% (inactive)
C[C@H](CO)N1C[C@H](C)[C@@H](CN(C)Cc2ccc(Cl)c(Cl)c2)Oc2c(NC(=O)c3ccncc3)cccc2C1=O | -21.9% (inactive)

Same assay, conditions: NIH/3T3 viability, ATP luminescence (CellTiter-Glo), 90 h; at 21 µM (top of the series)

SMILES | activity change, negative = cytotoxicity
C[C@H]1CN([C@@H](C)CO)C(=O)Cc2cc(NS(=O)(=O)c3ccc(F)cc3)ccc2O[C@@H]1CN(C)Cc1ccc(Cl)c(Cl)c1 | -12.6% (inactive)
Cc1ccc(S(=O)(=O)N(C)C[C@@H]2Oc3ccc(NS(=O)(=O)c4ccc(Cl)cc4)cc3CC(=O)N([C@H](C)CO)C[C@@H]2C)cc1 | -5.69% (inactive)
Cc1ccc(S(=O)(=O)Nc2ccc3c(c2)CC(=O)N([C@H](C)CO)C[C@@H](C)[C@H](CN(C)Cc2ccccc2)O3)cc1 | 9.12% (inactive)
C[C@H]1CN([C@@H](C)CO)C(=O)c2cccc(NC(=O)c3ccncc3)c2O[C@H]1CN(C)Cc1ccc(Oc2ccccc2)cc1 | 7.51% (inactive)
C[C@@H]1CN([C@@H](C)CO)C(=O)c2cccc(NC(=O)c3ccncc3)c2O[C@@H]1CN(C)Cc1ccc(Oc2ccccc2)cc1 | 31.2% (inactive)
C[C@H]1CN([C@@H](C)CO)C(=O)c2cccc(NC(=O)Nc3ccc(C(F)(F)F)cc3)c2O[C@@H]1CN(C)Cc1ccc(Cl)c(Cl)c1 | -12.5% (inactive)
Cc1ccc(S(=O)(=O)N(C)C[C@H]2Oc3c(NC(=O)c4nc5ccccc5s4)cccc3C(=O)N([C@@H](C)CO)C[C@H]2C)cc1 | -14.2% (inactive)
Cc1ccc(S(=O)(=O)Nc2ccc3c(c2)CC(=O)N([C@@H](C)CO)C[C@H](C)[C@@H](CN(C)S(=O)(=O)c2ccc(Cl)cc2)O3)cc1 | 11.7% (inactive)
C[C@H]1CN([C@@H](C)CO)C(=O)c2cccc(NC(=O)c3ccncc3)c2O[C@@H]1CN(C)CC1CCCCC1 | -19.3% (inactive)
Cc1ccc(S(=O)(=O)N(C)C[C@@H]2Oc3c(NC(=O)c4nc5ccccc5s4)cccc3C(=O)N([C@H](C)CO)C[C@H]2C)cc1 | 44.2% (inactive)
Cc1ccc(S(=O)(=O)Nc2ccc3c(c2)CC(=O)N([C@H](C)CO)C[C@H](C)[C@H](CN(C)S(=O)(=O)c2ccc(Cl)cc2)O3)cc1 | -27.3% (inactive)

Source: PubChem BioAssay AID651817 (Broad Institute, 2012)
